Test results from patent US6949542B2, “Dihydro-benzo[b][1,4]diazepin-2-one derivatives” (Hoffman-La Roche Inc., priority 2002, dated 2005).

SMILES | melting point [°C]
Cc1cc2c(cc1Cl)NC(=O)CC(c1cccc(-c3ccncn3)c1)=N2 [Example 297, 8-Chloro-7-methyl-4-(3-pyrimidin-4-yl-phenyl)-1,3-dihydro-benzo[b][1,4]diazepin-2-one] | 242 to 247
Cc1ccc(-c2cccc(C3=Nc4ccc(C(F)(F)F)cc4NC(=O)C3)c2)nn1 [Example 14, 4-[3-(6-Methyl-pyridazin-3-yl)-phenyl]-8-trifluoromethyl-1,3-dihydro-benzo[b][1,4]diazepin-2-one] | 233
Cc1cc2c(cc1C(F)(F)F)NC(=O)CC(c1cccc(-c3ccnc(N4CCCC4)c3)c1)=N2 [Example 389, 7-Methyl-4-[3-(2-pyrrolidin-1-yl-pyridin-4-yl)-phenyl]-8-trifluoromethyl-1,3-dihydro-benzo[b][1,4]diazepin-2-one] | 190
Cc1cc(-c2cccc(C3=Nc4cc(OCC(F)(F)F)c(C(F)(F)F)cc4NC(=O)C3)c2)cc(CO)n1 [Example 405, 4-[3-(2-Hydroxymethyl-6-methyl-pyridin-4-yl)-phenyl]-7-(2,2,2-trifluoro-ethoxy)-8-trifluoromethyl-1,3-dihydro-benzo[b][1,4]diazepin-2-one] | 227
O=C1CC(c2cccc(-c3cccnc3)c2)=Nc2cc(N3CCCC3)c(C(F)(F)F)cc2N1 [Example 187, 4-(3-Pyridin-3-yl-phenyl)-7-pyrrolidin-1-yl-8-trifluoromethyl-1,3-dihydro-benzo[b][1,4]diazepin-2-one] | 219 to 221
Cc1cc(C2CC2)ncc1-c1cccc(C2=Nc3cc(OCC(F)(F)F)c(C(F)(F)F)cc3NC(=O)C2)c1 [Example 248, 4-[3-(6-Cyclopropyl-4-methyl-pyridin-3-yl)-phenyl]-7-(2,2,2-trifluoro-ethoxy)-8-trifluoromethyl-1,3-dihydro-benzo[b][1,4]diazepin-2-one] | 206
O=C1CC(c2cccc(-c3ncccn3)c2)=Nc2cc(Cl)c(Cl)cc2N1 [Example 340, 7,8-Dichloro-4-(3-pyrimidin-2-yl-phenyl)-1,3-dihydro-benzo[b][1,4]diazepin-2-one] | 227 to 230
Cc1nccc(-c2cccc(C3=Nc4ccc(C(F)(F)F)cc4NC(=O)C3)c2)c1C [Example 142, 4-[3-(2,3-Dimethyl-pyridin-4-yl)-phenyl]-8-trifluoromethyl-1,3-dihydro benzo[b][1,4]diazepin-2-one] | 200
O=C1CC(c2cccc(-c3ccnc(N4CCOCC4)c3)c2)=Nc2cc(OCC(F)(F)F)c(C(F)(F)F)cc2N1 [Example 386, 4-[3-(2-Morpholin-4-yl-pyridin-4-yl)-phenyl]-7-(2,2,2-trifluoro-ethoxy)-8-trifluoromethyl-1,3-dihydro-benzo[b][1,4]diazepin-2-one] | 189 to 190
O=C1CC(c2cccc(-c3ncccn3)c2)=Nc2ccc(Cl)cc2N1 [Example 339, 8-Chloro-4-(3-pyrimidin-2-yl-phenyl)-1,3-dihydro-benzo[b][1,4]diazepin-2-one] | 217 to 222
Cc1cc2c(cc1C(F)(F)F)NC(=O)CC(c1cccc(-c3ccnc(CC(C)C)c3)c1)=N2 [Example 262, 4-[3-(2-Isobutyl-pyridin-4-yl)-phenyl]-7-methyl-8-trifluoromethyl-1,3-dihydro benzo[b][1,4]diazepin-2-one] | 209
COc1ccc2c(c1)NC(=O)CC(c1cccc(-c3ccncc3)c1)=N2 [Example 38, 8-Methoxy-4-(3-pyridin-4-yl-phenyl)-1,3-dihydro-benzo[b][1,4]diazepin-2-one] | 193 to 196
Cc1cc(-c2cccc(C3=Nc4cc(C5CC5)c(C(F)(F)F)cc4NC(=O)C3)c2)ccn1 [Example 350, 7-Cyclopropyl-4-[3-(2-methyl-pyridin-4-yl)-phenyl]-8-trifluoromethyl-1,3-dihydro-benzo[b][1,4]diazepin-2-one] | 205 to 211
Cc1cc2c(cc1C(F)(F)F)NC(=O)CC(c1cccc(-c3ccnc(C#N)c3)c1)=N2 [Example 199, 4-[3-(8-Methyl-4-oxo-7-trifluoromethyl-4,5-dihydro-3H-benzo[b][1,4]diazepin-2-yl)-phenyl]-pyridine-2-carbonitrile] | 205 to 211
CCCOc1cc2c(cc1C(F)(F)F)NC(=O)CC(c1cccc(-c3ccc(C4CC4)nc3)c1)=N2 [Example 216, 4-[3-(6-Cyclopropyl-pyridin-3-yl)-phenyl]-7-propoxy-8-trifluoromethyl-1,3-dihydro-benzo[b][1,4]diazepin-2-one] | 209 to 210
CCc1ncccc1-c1cccc(C2=Nc3cc(OCC(F)(F)F)c(C(F)(F)F)cc3NC(=O)C2)c1 [Example 236, 4-[3-(2-Ethyl-pyridin-3-yl)-phenyl]-7-(2,2,2-trifluoro-ethoxy)-8-trifluoromethyl-1,3-dihydro-benzo[b][1,4]diazepin-2-one] | 184
CCOc1cc2c(cc1Cl)NC(=O)CC(c1cccc(-c3cccnc3)c1)=N2 [Example 181, 8-Chloro-7-ethoxy-4-(3-pyridin-3-yl-phenyl)-1,3-dihydro-benzo[b][1,4]diazepin-2-one] | 210

SMILES | melting point [°C]
O=C1CC(c2cccc(-c3ccccn3)c2)=Nc2cc(C(F)(F)F)c(Cl)cc2N1 [Example 107, 8-Chloro-4-(3-pyridin-2-yl-phenyl)-7-trifluoromethyl-1,3-dihydro-benzo[b][1,4]diazepin-2-one] | 208
CCOc1cc2c(cc1C(F)(F)F)NC(=O)CC(c1cccc(-c3cc(C)nc(CC)c3)c1)=N2 [Example 250, 7-Ethoxy-4-[3-(2-ethyl-6-methyl-pyridin-4-yl)-phenyl]-8-trifluoromethyl-1,3-dihydro-benzo[b][1,4]diazepin-2-one] | 215
Cc1ncccc1-c1cccc(C2=Nc3ccc(F)cc3NC(=O)C2)c1 [Example 18, 8-Fluoro-4-[3-(2-methyl-pyridin-3-yl)-phenyl]-1,3-dihydro-benzo[b][1,4]diazepin-2-one] | 219 to 220
CC(C)CNc1cc2c(cc1Cl)NC(=O)CC(c1cccc(-c3cncnc3)c1)=N2 [Example 96, 8-Chloro-7-isobutylamino-4-(3-pyrimidin-5-yl-phenyl)-1,3-dihydro-benzo[b][1,4]diazepin-2-one] | 241
Cc1cc2c(cc1Cl)NC(=O)CC(c1cccc(-c3cnccn3)c1)=N2 [Example 86, 8-Chloro-7-methyl-4-(3-pyrazin-2-yl-phenyl)-1,3-dihydro-benzo[b][1,4]diazepin-2-one] | 232
CCc1cc(-c2cccc(C3=Nc4cc(OCC(F)(F)F)c(C(F)(F)F)cc4NC(=O)C3)c2)cc(C)n1 [Example 251, 4-[3-(2-Ethyl-6-methyl-pyridin-4-yl)-phenyl]-7-(2,2,2-trifluoro-ethoxy)-8-trifluoromethyl-1,3-dihydro-benzo[b][1,4]diazepin-2-one] | 209
CC(C)Cc1cc(-c2cccc(C3=Nc4ccc(C(F)(F)F)cc4NC(=O)C3)c2)ccn1 [Example 281, 4-[3-(2-Isobutyl-pyridin-4-yl)-phenyl]-8-trifluoromethyl-1,3-dihydro benzo[b][1,4]diazepin-2-one] | 181
Cc1cc(-c2cccc(C3=Nc4ccccc4NC(=O)C3)c2)ccn1 [Example 71, 4-[3-(2-Methyl-pyridin-4-yl)-phenyl]-1,3-dihydro-benzo[b][1,4]diazepin-2-one] | 192
CCOc1cc2c(cc1C(F)(F)F)NC(=O)CC(c1cccc(-c3ccnc(CO)c3)c1)=N2 [Example 287, 4-[3-(2-Hydroxymethyl-pyridin-4-yl)-phenyl]-7-ethoxy-8-trifluoromethyl-1,3-dihydro-benzo[b][1,4]diazepin-2-one] | 216
CN(C)c1cc2c(cc1C(F)(F)F)NC(=O)CC(c1cccc(-c3cncnc3)c1)=N2 [Example 85, 7-Dimethylamino-4-(3-pyrimidin-5-yl-phenyl)-8-trifluoromethyl-1,3-dihydro-benzo[b][1,4]diazepin-2-one] | 200
CCOc1cc2c(cc1C(F)(F)F)NC(=O)CC(c1cccc(-c3cc(C)nc(CO)c3)c1)=N2 [Example 406, 7-Ethoxy-4-[3-(2-hydroxymethyl-6-methyl-pyridin-4-yl)-phenyl]-8-trifluoromethyl-1,3-dihydro-benzo[b][1,4]diazepin-2-one] | 225
Cc1cc2c(cc1C(F)(F)F)NC(=O)CC(c1cccc(-c3cccnc3C)c1)=N2 [Example 260, 7-Methyl-4-[3-(2-methyl-pyridin-3-yl)-phenyl]-8-trifluoromethyl-1,3-dihydro-benzo[b][1,4]diazepin-2-one] | 246
O=C1CC(c2cccc(-c3cccnc3)c2)=Nc2cc(C(F)(F)F)c(C(F)(F)F)cc2N1 [Example 416, 4-(3-Pyridin-3-yl-phenyl)-7,8-bis-trifluoromethyl-1,3-dihydro-benzo[b][1,4]diazepin-2-one] | 210
O=C1CC(c2cccc(-c3ccnc(CN4CCCC4)c3)c2)=Nc2cc(OCC(F)(F)F)c(C(F)(F)F)cc2N1 [Example 380, 4-[3-(2-Pyrrolidin-1-ylmethyl-pyridin-4-yl)-phenyl]-7-(2,2,2-trifluoro-ethoxy)-8-trifluoromethyl-1,3-dihydro-benzo[b][1,4]diazepin-2-one] | 182
Cc1cc(-c2cccc(C3=Nc4cc(C)c(C(F)(F)F)cc4NC(=O)C3)c2)cc(C2CC2)n1 [Example 257, 4-[3-(2-Cyclopropyl-6-methyl-pyridin-4-yl)-phenyl]-7-methyl-8-trifluoromethyl-1,3-dihydro-benzo[b][1,4]diazepin-2-one] | 257
Cc1cncc(-c2cccc(C3=Nc4cc(C(F)(F)F)c(C)cc4NC(=O)C3)c2)n1 [Example 130, 8-Methyl-4-[3-(6-methyl-pyrazin-2-yl)-phenyl]-7-trifluoromethyl-1,3-dihydro-benzo[b][1,4]diazepin-2-one] | 211
CCCc1cc2c(cc1C(F)(F)F)NC(=O)CC(c1cccc(-c3cccnc3)c1)=N2 [Example 230, 7-Propyl-4-(3-pyridin-3-yl-phenyl)-8-trifluoromethyl-1,3-dihydro-benzo[b][1,4]diazepin-2-one] | 162
